Experimental findings from patent US8426136B2, “Epigenetic modifications at TNFα as biomarkers for sensitivity to Smac mimetic-induced apoptosis” (Joyant Pharmaceuticals, Inc., priority 2009, dated 2013) are described below.

Assay [1] relates to TNFα mRNA. Kind of assay: TNFα mRNA by semiquantitative RT-PCR in Colo205 cells. The format is cell-based, human. As to the method:
(§1) This procedure describes the semi-quantitative measurement of human TNFα mRNA levels in human cell culture.
(§2) Cell Treatment: cells were plated in 6 well dishes at 1.5×10^5 cells/ml in a volume of 2.5 ml, next day cells were treated −/+50 ul of 5 μM Smac Mimetic, JP1010, (final concentration: 100 nM) for 4 hr.
(§3) RNA Isolation: cells were washed 2× with 2 ml PBS followed by isolation of RNA from 6 well dishes using Qiagen RNAeasy kit or TRIzol reagent (Invitrogen) according to manufacturer's protocol. RNA isolation with TRIzol was conducted by adding 1 ml of TRIzol reagent to each well and pipetting up and down several times before transferring lysate to 1.5 ml microfuge tube. […] RNA concentration was measured. […]
(§4) Semi-quantitative RT-PCR for TNFα and Actin were performed as follows: Control semi-quantitative Actin PCR were conducted in a 25 ul reaction mixture with the following cycle condition: 94° C. […] TNFa semi quantitative PCR were conducted in a 25 ul reaction mixture with the following cycle conditions: 94° C.-2 min, 30-35 cycles (depending on cell line) of 94° C.-30 sec, 59° C.-30 sec, 72° C.-1 min, followed by 72° C. for 10 min. […]

A further assay relates to cIAP2 mRNA. In words: cIAP2 mRNA level in Colo205 cells. To be noted: MS-275 alone. The format is cell-based.
For assay [2], the system named is acetylated Histone H4 levels at the TNFα locus. In words: ChIP of acetylated histone H4 at the TNFα locus in MDA-MB231 cells. The format is cell-based. To be noted: 5 mM NaBu. The procedure:
Purpose: This procedure evaluates the localization of specific proteins or their modified forms on chromatin. For our purpose to specifically evaluate the levels of modified histones and cofactors bound to the Tumor Necrosis Factor (TNFa) gene promoter.
ChIP Lysis buffer contained 1% SDS, 10 mM EDTA, 50 mM Tris-HCl, pH8.1, 1× protease inhibitor cocktail (Roche). ChIP Dilution buffer contained 1% Triton x-100, 2 mM EDTA, 150 mM NaCl, 20 mM Tris-HCl, pH8.1, 1× protease inhibitor cocktail (Roche). Wash Buffer I contained 0.1% SDS, 1% Triton x-100, 2 mM EDTA, 150 mM NaCl, 20 mM Tris-HCl, pH8.1. Wash Buffer II contained wash buffer I with 500 mM NaCl. Wash Buffer III contained 0.25M LiCl, 1% NP-40, 1% deoxycholate, 1 mM EDTA, 10 mM Tris-HCl, pH8.1. TE buffer contained 10 mM Tris-HCl, pH 7.5, 0.1 mM EDTA. ChIP Extraction buffer contained 1% SDS, 0.1M NaHCO3. Antibodies used include anti-histone H3 (Abcam, ab1791), anti-hyperacetylated histone H4 (Millipore, 06-946), anti-dimethyl-histone H3k4 (Millipore, 07-030), anti-dimethyl histone H3K9 (Abcam, ab1220), anti-histone H4 (Millipore, 05-858), anti-acetylated H3 (Millipore, 06-599), anti-acetylated H4 (Millipore, 06-866).
Cells were plated on either 10 cm or 15 cm tissue culture dishes (˜1×10^6). At 80-100% confluency cells were crosslinked by the addition of 37% formaldehyde (final concentration 1%) directly to the cell medium. […]

The test system of assay [3] is TNFα mRNA. Kind of assay: TNFα mRNA by RT-PCR in H2073 cells. The format is cell-based, human. The settings on record: FIG. 5 legend. As to the method:
as §1, §2, §3, §4

Regarding `Nc1ccccc1NC(=O)c1ccc(CNC(=O)OCc2cccnc2)cc1` [MS-275], the “Smac mimetic-induced TNFα production” value with TNFα mRNA [1] (FIG. 4 legend) is “Primes”. Besides, the “production of TNFα mRNA” value in the assay with TNFα mRNA [1] (agent alone) was “increased”. In addition, the “mRNA level of cIAP2” value with cIAP2 mRNA is given as “increased”.
For the compound `CCCC(=O)[O-].[Na+]` [NaBu, Sodium butyrate], the “increase of the level of acetylated H4” value in assay [2] is listed as 4-5 fold. Moreover, the “Smac mimetic-induced TNFα production” value in the assay with TNFα mRNA [3] is listed as “increases”.
